Results as given in patent US12691112B2, “FGFR tyrosine kinase inhibitors for the treatment of urothelial carcinoma” (Janssen Pharmaceutica NV, priority 2019, dated 2026).

Tested on: metastatic or surgically unresectable urothelial cancer harboring select FGFR genetic alterations
Test: Phase 2 study NCT02365597: overall survival (Kaplan-Meier)
Type: in vivo, human
Protocol: The term “overall survival” is defined as the time from first dose to the date of death. Data for patients who are alive or have unknown status is censored at the last date on which the patient is known to be alive.
Patients were contacted every 12 weeks for survival assessment.
The study was designed to enroll 180 patients with specified FGFR alterations. Of these, ≥88 were required in the selected regimen. […] Responses were assessed by investigators and an independent radiological review committee. Progression-free survival and overall survival were estimated using Kaplan-Meier product limit method. Data from patients who were progression free and alive or with unknown status were censored at last tumor assessment. Efficacy end points were analysed at primary analysis cut-off.

[1] = FGFR fusions (excluding mutations), 6 mg QD
[2] = FGFR fusions (excluding mutations), 8 mg QD
[3] = FGFR fusions (excluding mutations), 10 mg 7 on/7 off
[4] = FGFR fusions (excluding mutations), Total
[5] = FGFR mutations (excluding fusions), 6 mg QD
[6] = FGFR mutations (excluding fusions), 8 mg QD
[7] = FGFR mutations (excluding fusions), 10 mg 7 on/7 off
[8] = FGFR mutations (excluding fusions), Total
[9] = FGFR mutations and fusions, 6 mg QD
[10] = FGFR mutations and fusions, 10 mg 7 on/7 off
[11] = FGFR mutations and fusions, Total

Which results are given for `COc1cc(OC)cc(N(CCNC(C)C)c2ccc3ncc(-c4cnn(C)c4)nc3c2)c1` [erdafitinib, N-(3,5-dimethoxy-phenyl)-N′-(1-methylethyl)-N-[3-(1-methyl-1H-pyrazol-4-yl)quinoxalin-6-yl]ethane-1,2-diamine]?
6-month overall survival rate (95% CI) [1]: 0.80 (0.41, 0.95); 12-month overall survival rate (95% CI) [1]: 0.46 (0.14, 0.73); 18-month overall survival rate (95% CI) [1]: 0.46 (0.14, 0.73); Overall survival, Median (95% CI) [1]: 9.33 (0.46, NE) months; Overall survival, Q1 [1]: 7.92 months; Overall survival, Q3 [1]: 18.96 months; 6-month overall survival rate (95% CI) [2]: 0.77 (0.54, 0.90); 12-month overall survival rate (95% CI) [2]: 0.46 (0.24, 0.66); Overall survival, Median (95% CI) [2]: 10.32 (6.05, NE) months; Overall survival, Q1 [2]: 6.05 months; Overall survival, Q3 [2]: 14.03 months; 6-month overall survival rate (95% CI) [3]: 1.00 (1.00, 1.00); 12-month overall survival rate (95% CI) [3]: 0.50 (0.01, 0.91); 18-month overall survival rate (95% CI) [3]: 0 (NE, NE); 24-month overall survival rate (95% CI) [3]: 0 (NE, NE); Overall survival, Median (95% CI) [3]: 10.37 (7.72, 13.01) months; Overall survival, Q1 [3]: 7.72 months; Overall survival, Q3 [3]: 13.01 months; 6-month overall survival rate (95% CI) [4]: 0.80 (0.62, 0.90); 12-month overall survival rate (95% CI) [4]: 0.46 (0.28, 0.62); 18-month overall survival rate (95% CI) [4]: 0.31 (0.12, 0.52); Overall survival, Median (95% CI) [4]: 9.33 (7.72, 18.96) months; Overall survival, Q1 [4]: 6.97 months; Overall survival, Q3 [4]: 18.96 months; 6-month overall survival rate (95% CI) [5]: 0.68 (0.54, 0.79); 12-month overall survival rate (95% CI) [5]: 0.30 (0.18, 0.43); 18-month overall survival rate (95% CI) [5]: 0.21 (0.11, 0.33); Overall survival, Median (95% CI) [5]: 8.31 (6.41, 9.63) months; Overall survival, Q1 [5]: 5.13 months; Overall survival, Q3 [5]: 14.82 months; 6-month overall survival rate (95% CI) [6]: 0.74 (0.61, 0.83); 12-month overall survival rate (95% CI) [6]: 0.54 (0.38, 0.68); Overall survival, Median (95% CI) [6]: 12.02 (8.64, NE) months; Overall survival, Q1 [6]: 5.98, NE months; 6-month overall survival rate (95% CI) [7]: 0.70 (0.47, 0.84); 12-month overall survival rate (95% CI) [7]: 0.31 (0.14, 0.50); 18-month overall survival rate (95% CI) [7]: 0.26 (0.11, 0.45); 24-month overall survival rate (95% CI) [7]: 0.22 (0.08, 0.40); Overall survival, Median (95% CI) [7]: 7.39 (5.78, 10.71) months; Overall survival, Q1 [7]: 5.55 months; Overall survival, Q3 [7]: 18.76 months; 6-month overall survival rate (95% CI) [8]: 0.71 (0.63, 0.78); 12-month overall survival rate (95% CI) [8]: 0.39 (0.30, 0.48); 18-month overall survival rate (95% CI) [8]: 0.29 (0.20, 0.39); 24-month overall survival rate (95% CI) [8]: 0.24 (0.15, 0.35); Overall survival, Median (95% CI) [8]: 9.10 (7.46, 11.86) months; Overall survival, Q1 [8]: 5.49 months; Overall survival, Q3 [8]: 18.76 months; 6-month overall survival rate (95% CI) [9]: 0.75 (0.13, 0.96); 12-month overall survival rate (95% CI) [9]: 0.75 (0.13, 0.96); 18-month overall survival rate (95% CI) [9]: 0.38 (0.01, 0.81); Overall survival, Median (95% CI) [9]: 12.65 (0.39, NE) months; Overall survival, Q1 [9]: 6.52, NE months; 6-month overall survival rate (95% CI) [10]: 0.67 (0.05, 0.95); 12-month overall survival rate (95% CI) [10]: 0 (NE, NE); 18-month overall survival rate (95% CI) [10]: 0 (NE, NE); 24-month overall survival rate (95% CI) [10]: 0 (NE, NE); Overall survival, Median (95% CI) [10]: 6.21 (3.98, 9.10) months; Overall survival, Q1 [10]: 3.98 months; Overall survival, Q3 [10]: 9.10 months; 6-month overall survival rate (95% CI) [11]: 0.71 (0.26, 0.92); 12-month overall survival rate (95% CI) [11]: 0.43 (0.10, 0.73); 18-month overall survival rate (95% CI) [11]: 0.21 (0.01, 0.59); Overall survival, Median (95% CI) [11]: 9.10 (0.39, NE) months; Overall survival, Q1 [11]: 3.98 months; Overall survival, Q3 [11]: 12.65 months; Median overall survival (95% CI) (Regimen 1, 10 mg intermittent): 7.5 (6.0 to 10.7) months; overall survival rate at 12 months (Regimen 1, 10 mg intermittent): 31%; Median overall survival (95% CI) (Regimen 2, 6 mg continuous): 8.6 (6.5 to 9.7) months; overall survival rate at 12 months (Regimen 2, 6 mg continuous): 33%; Survival rate at 12 months (Regimen 3, 8 mg continuous): 55%; median overall survival (Regimen 3, 8 mg continuous): 13.8 months
